Experimental data: ChEMBL document CHEMBL5338769, “Discovery of Norisoboldine Analogue III11 as a Novel and Potent Aryl Hydrocarbon Receptor Agonist for the Treatment of Ulcerative Colitis” (J Med Chem, 2023)
The source made the active and inactive calls. The rule behind the calls is not given here.

Tests used:
[1] = molecular target: T1, Aryl hydrocarbon receptor (Mus musculus, UniProt P30561); assay: Activation of AhR transcription in C57BL/6 mouse naive T cells assessed as increase in CYP1A1 mRNA expression at 1 to 3 uM measured after 72 hrs by qRT-PCR analysis; format: cell-based; conditions: t cell, dose 1-3 µM
T1 sequence (P30561 whole entry): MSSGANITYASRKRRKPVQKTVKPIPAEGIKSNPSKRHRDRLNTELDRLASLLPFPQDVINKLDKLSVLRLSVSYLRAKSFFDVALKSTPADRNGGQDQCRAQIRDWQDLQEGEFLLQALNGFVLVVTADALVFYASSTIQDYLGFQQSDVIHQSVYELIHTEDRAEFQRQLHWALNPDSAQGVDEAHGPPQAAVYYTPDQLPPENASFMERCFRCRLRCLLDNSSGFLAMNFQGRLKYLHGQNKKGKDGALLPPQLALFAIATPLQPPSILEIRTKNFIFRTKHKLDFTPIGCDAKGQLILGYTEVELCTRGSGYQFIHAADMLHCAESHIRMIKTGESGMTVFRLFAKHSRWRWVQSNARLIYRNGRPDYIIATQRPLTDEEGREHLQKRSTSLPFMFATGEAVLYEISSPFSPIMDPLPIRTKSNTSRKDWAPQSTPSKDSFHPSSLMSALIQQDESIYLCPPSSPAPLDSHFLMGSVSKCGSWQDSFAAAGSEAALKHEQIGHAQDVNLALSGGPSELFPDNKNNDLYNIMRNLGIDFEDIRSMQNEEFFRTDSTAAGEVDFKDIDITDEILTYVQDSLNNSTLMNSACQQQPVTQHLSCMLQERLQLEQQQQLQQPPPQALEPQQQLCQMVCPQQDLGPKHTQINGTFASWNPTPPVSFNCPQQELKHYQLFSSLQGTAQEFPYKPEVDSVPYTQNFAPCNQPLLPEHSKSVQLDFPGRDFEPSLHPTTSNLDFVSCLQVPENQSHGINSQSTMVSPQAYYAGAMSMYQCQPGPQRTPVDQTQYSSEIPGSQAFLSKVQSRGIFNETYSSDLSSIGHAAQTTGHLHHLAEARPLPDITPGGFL

EL4 = assay: Cytotoxicity against mouse EL4 cells assessed as inhibition of cell proliferation incubated for 72 hrs by MTT assay; format: functional, cell-based; conditions: for IC50: EL4, 72 h
[2] = molecular target: T1, Aryl hydrocarbon receptor; assay: Activation of AhR transcription in C57BL/6 mouse naive T cells assessed as increase in CYP1A1 mRNA expression at 1 to 3 uM by qRT-PCR analysis; format: cell-based; conditions: t cell, dose 1-3 µM
[3] = molecular target: T1, Aryl hydrocarbon receptor; assay: Activation of AhR transcription in C57BL/6 mouse naive T cells assessed as increase in CYP1B1 mRNA expression at 1 to 3 uM by qRT-PCR analysis; format: cell-based; conditions: t cell, dose 1-3 µM
[4] = molecular target: T1, Aryl hydrocarbon receptor; assay: Activation of AhR transcription in C57BL/6 mouse naive T cells assessed as increase in UGT1A1 mRNA expression at 1 to 3 uM by qRT-PCR analysis; format: cell-based; conditions: t cell, dose 1-3 µM
[5] = molecular target: T1, Aryl hydrocarbon receptor; assay: Activation of AhR transcription in C57BL/6 mouse naive T cells assessed as increase in AhRR mRNA expression at 1 to 3 uM by qRT-PCR analysis; format: cell-based; conditions: t cell, dose 1-3 µM
[6] = molecular target: T1, Aryl hydrocarbon receptor; assay: Activation of AhR transcription in C57BL/6 mouse naive T cells assessed as increase in CYP1A1 mRNA expression at 1 uM by qRT-PCR analysis; format: cell-based; conditions: t cell
[7] = molecular target: T1, Aryl hydrocarbon receptor; assay: Activation of AhR transcription in C57BL/6 mouse naive T cells assessed as increase in CYP1A1 mRNA expression at 3 uM measured after 72 hrs by qRT-PCR analysis relative to control; format: cell-based; conditions: t cell

Structure (SMILES): COc1cccc(CCN)c1
- Activity [1]: Not Active

Structure (SMILES): COc1cc2c(cc1OC)-c1c(OC)c(OC)cc3c1C(C2)NCC3 (configuration not stated)
- IC50 (EL4): 13.9 µM
- Activity [2]: Not Active
- Activity [3]: Not Active
- Activity [4]: Not Active
- Activity [5]: Not Active

Structure (SMILES): COc1cc2c(cc1O)CC1NCCc3cc(OC)c(OC)c-2c31 (configuration not stated)
- IC50 (EL4): 48.4 µM
- Activity [6]: Active

Structure (SMILES): COc1ccc2c(c1)CC1NCCc3cc(OC)c(OC)c-2c31 (configuration not stated)
- IC50 (EL4): 10.8 µM
- Activity [7]: 152.7%

Structure (SMILES): COc1cc2c3c(c1OC)-c1ccccc1CC3NCC2 (configuration not stated) [NORNUCIFERINE]
- IC50 (EL4): 26.2 µM
- Activity [6]: Active

Structure (SMILES): COc1cc2c(cc1O)-c1c(OC)c(OC)cc3c1C(C2)NCC3 (configuration not stated)
- IC50 (EL4): 36.9 µM
- Activity [2]: Not Active
- Activity [3]: Not Active
- Activity [4]: Not Active
- Activity [5]: Not Active

Structure (SMILES): Oc1ccc2c(c1)CC1NCCc3cccc-2c31 (configuration not stated)
- Activity (EL4): inactive

Structure (SMILES): COc1ccc2c(c1)CCN(C(=O)OCc1ccccc1)C2Cc1cc(OCc2ccccc2)ccc1Br (configuration not stated)
- Activity [1]: Not Active

Structure (SMILES): COc1cc2c3c(c1OC)-c1ccc(O)cc1CC3NCC2 (configuration not stated)
- IC50 (EL4): 64.4 µM
- Activity [7]: 150.7%

Structure (SMILES): O=Cc1cc(OCc2ccccc2)ccc1Br
- Activity [1]: Not Active
